Laboratory results reported in patent publication US12473282B2, “Biphenyl fluorine double bond derivative, preparation method therefor, and pharmaceutical application thereof” (Abbisko Therapeutics Co., Ltd., priority 2020, dated 2025).

Legend:
[1] = target: interaction between PD-1 and PD-L1 (Homo sapiens (Human), UniProt Q9NZQ7); assay: PD1-PDL1 HTRF binding activity test (Cisbio PD-1/PD-L1 binding assay kit)
Description: I. PD1-PDL1 HTRF Binding Activity Test
The effect of compounds of the examples of the present invention on the interaction between PD-1 and PD-L1 was determined by the PD-1/PD-L1 binding assay kit from Cisbio (#64ICP01PEG or 64ICP01PEH). The detailed experimental process was as follows: • 1. Pre-diluted compound solution, 4 μL of Tag1-PD-L1 and 4 μL of Tag2-PD1 were added to each well of a 384-well plate; • 2. After the mixture was incubated at room temperature for 15 min, 5 μL of anti-Tag1-Eu3+ antibody and 5 μL of anti-Tag2-XL665 antibody were then added; • 3. After incubated for 2 hrs at room temperature or overnight at 4° C., plates were read on Envision of Pelkin Elmer; and readings at 665 nm and 620 nm were recorded, and the ratio of the two readings was taken as a reading for each well; • 4. The reading of each well after compound treatment was compared with the reading of DMSO treated wells to obtain the percent inhibition of the compound; • 5. IC50 values of compounds and positive compounds of the examples of the present invention were determined by non-linear regression analysis of percent inhibition at different compound concentrations. II. Jurkat Reporter Gene Cellular Assay

[2] = Jurkat reporter gene cellular assay; assay type: cell-based; settings: Homo sapiens; Jurkat/NF-κB-luc/PD1 + Raji-PD-L1 coculture, OKT3 1 μg/mL, 6 hrs, activation fold; read-out: Cell Activity EC50
Description: The effect of compounds of the examples of the present invention and positive compounds on the interaction between PD-1 and PD-L1 expressed on cell surfaces, and the related influence on T cell functions, were determined by a Jurkat reporter gene cellular assay.
Briefly, the reporter gene plasmid of NF-κB-luc and the plasmid of human PD-1 were transfected into Jurkat cells to establish a stably transfected cell line capable of stably expressing both PD-1 and NF-κB-Luc reporter genes; the expression level of PD-1 on the cell surface was confirmed by flow cytometry; and the expression of the reporter gene was confirmed via the response of the reporter gene stimulated by OKT-3 and Raiji cells.
In addition, the plasmid of human PD-L1 was transfected into Raji cells to obtain a cell line capable of stably expressing PD-L1. Jurkat/NF-κB-luc/PD1 cells and Raji-PD-L1 cells were then cocultured and stimulated with OKT-3. On this basis, the compounds were added, and the enhancement of the signal pathway of T cell activation by the inhibitory effect of the compounds on the interaction between PD-1 and PD-L1 was evaluated by readings of reporter gene responses. The specific experimental process was as follows: • 1. 30 μL of compound or antibody solution was added to each well of a white 96-well plate (corning, 3610) at different diluted concentrations, and 10 μL of OKT3 (Biolegend, 317326) was then added (the final concentration of OKT3: 1 μg/mL); • 2. 20 μL of Raji-PD-L1 cell suspension was added to each well with 5*10^4 cells for each well, and was incubated in an incubator for 20 min; • 3. 20 μL of Jurkat/NF-Kb-luc/PD-1 cell suspension was added to each well with 5*10^4 cells for each well, and well mixed, and 6 hrs later, Bright-glo (Promega, E2620) was applied and plates were read on Envision; • 4. The reading of each well treated with the compound was compared with the reading of each well treated with DMSO to obtain the activation fold of the compound; • 5. EC50 values of compounds and positive compounds of the examples of the present invention were determined by non-linear regression analysis of activation folds at different compound concentrations.

Sequence of interaction between PD-1 and PD-L1 (Q9NZQ7 19-238): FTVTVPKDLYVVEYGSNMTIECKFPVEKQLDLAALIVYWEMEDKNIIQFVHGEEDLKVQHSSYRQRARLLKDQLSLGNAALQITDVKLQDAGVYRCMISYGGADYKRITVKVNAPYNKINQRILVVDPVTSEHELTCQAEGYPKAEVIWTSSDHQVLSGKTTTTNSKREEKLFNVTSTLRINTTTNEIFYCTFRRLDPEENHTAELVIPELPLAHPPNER

C[C@@H](O)CN1CCc2c(nc(/C(F)=C/c3cccc(-c4cccc(NC(=O)c5nc6c(n5C)CCN(CCC57CCC(C(=O)O)(CC5)C7)C6)c4Cl)c3Cl)n2C)C1 [Example 7, (R,Z)-4-(2-(2-((2,2′-dichloro-3′-(2-fluoro-2-(5-(2-hydroxypropyl)-1-methyl-4,5,6,7-tetrahydro-1H-imidazo[4,5-c]pyridin-2-yl)vinyl)-[1,1′-biphenyl]-3-yl)carbamoyl)-1-methyl-1,4,6,7-tetrahydro-5H-imidazo[4,5-c]pyridin-5-yl)ethyl)bicyclo[2.2.1]heptane-1-carboxylic acid]
IC50 [1]: 0.419 nM
EC50 [2]: 62.2 nM

CC(C)N1CCc2c(nc(/C(F)=C/c3cccc(-c4cccc(NC(=O)c5nc6c(n5C)CCN(CCC57CCC(C(=O)O)(CC5)C7)C6)c4Cl)c3Cl)n2C)C1 [Example 8, (Z)-4-(2-(2-((2,2′-dichloro-3′-(2-fluoro-2-(5-isopropyl-1-methyl-4,5,6,7-tetrahydro-1H-imidazo[4,5-c]pyridin-2-yl)vinyl)-[1,1′-biphenyl]-3-yl)carbamoyl)-1-methyl-1,4,6,7-tetrahydro-5H-imidazo[4,5-c]pyridin-5-yl)ethyl)bicyclo[2.2.1]heptane-1-carboxylic acid]
IC50 [1]: 0.516 nM
EC50 [2]: 97.5 nM

COc1cc(/C(F)=C/c2cccc(-c3cccc(NC(=O)c4nc5c(n4C)CCN(CCC46CCC(C(=O)O)(CC4)C6)C5)c3Cl)c2Cl)ncc1CNCCO [Example 16, (Z)-4-(2-(2-((2,2′-dichloro-3′-(2-fluoro-2-(5-(((2-hydroxyethyl)amino)methyl)-4-methoxypyridin-2-yl)vinyl)-[1,1′-biphenyl]-3-yl)carbamoyl)-1-methyl-1,4,6,7-tetrahydro-5H-imidazo[4,5-c]pyridin-5-yl)ethyl)bicyclo[2.2.1]heptane-1-carboxylic acid]
IC50 [1]: 0.191 nM
EC50 [2]: 133 nM

COc1cc(/C(F)=C/c2cccc(-c3cccc(NC(=O)c4nc5c(n4C)CCN(C[C@H]4CC[C@H](C(=O)O)CC4)C5)c3C)c2C)ncc1CNC[C@@H]1CCC(=O)N1 [Example 17, (1R,4R)-4-((2-((3′-((Z)-2-fluoro-2-(4-methoxy-5-(((((S)-5-oxopyrrolidin-2-yl)methyl)amino)methyl)pyridin-2-yl)vinyl)-2,2′-dimethyl-[1,1′-biphenyl]-3-yl)carbamoyl)-1-methyl-1,4,6,7-tetrahydro-5H-imidazo[4,5-c]pyridin-5-yl)methyl)cyclohexane-1-carboxylic acid]
IC50 [1]: 0.331 nM
EC50 [2]: 464 nM

COc1cc(/C(F)=C/c2cccc(-c3cccc(NC(=O)c4nc5c(n4C)CCN(CCC46CCC(C(=O)O)(CC4)C6)C5)c3Cl)c2Cl)ncc1CN1CC(C)(O)C1 [Example 33, (Z)-4-(2-(2-((2,2′-dichloro-3′-(2-fluoro-2-(5-((3-hydroxy-3-methylazetidin-1-yl)methyl)-4-methoxypyridin-2-yl)vinyl)-[1,1′-biphenyl]-3-yl)carbamoyl)-1-methyl-1,4,6,7-tetrahydro-5H-imidazo[4,5-c]pyridin-5-yl)ethyl)bicyclo[2.2.1]heptane-1-carboxylic acid]
IC50 [1]: 0.489 nM
EC50 [2]: 85.8 nM

COc1cc(/C(F)=C/c2cccc(-c3cccc(NC(=O)c4nc5c(n4C)CCN(CCC46CCC(C(=O)O)(CC4)C6)C5)c3Cl)c2Cl)ncc1CN1CCO[C@@H](CO)C1 [Example 69, (R,Z)-4-(2-(2-((2,2′-dichloro-3′-(2-fluoro-2-(5-((2-(hydroxymethyl)morpholino)methyl)-4-methoxypyridin-2-yl)vinyl)-[1,1′-biphenyl]-3-yl)carbamoyl)-1-methyl-1,4,6,7-tetrahydro-5H-imidazo[4,5-c]pyridin-5-yl)ethyl)bicyclo[2.2.1]heptane-1-carboxylic acid]
EC50 [2]: 116 nM

COc1cc(/C(F)=C/c2cccc(-c3cccc(NC(=O)c4nc5c(n4C)CCN(CCC46CCC(C(=O)O)(CC4)C6)C5)c3Cl)c2Cl)ncc1CN1CCO[C@H](CO)C1 [Example 70, (S,Z)-4-(2-(2-((2,2′-dichloro-3′-(2-fluoro-2-(5-((2-(hydroxymethyl)morpholino)methyl)-4-methoxypyridin-2-yl)vinyl)-[1,1′-biphenyl]-3-yl)carbamoyl)-1-methyl-1,4,6,7-tetrahydro-5H-imidazo[4,5-c]pyridin-5-yl)ethyl)bicyclo[2.2.1]heptane-1-carboxylic acid]
EC50 [2]: 128 nM

COc1cc(/C(F)=C/c2cccc(-c3cccc(NC(=O)c4nc5c(n4C)CCN(CCC46CCC(C(=O)O)(CC4)C6)C5)c3Cl)c2Cl)ncc1CN1CC[C@@](C)(O)C1 [Example 71, (R,Z)-4-(2-(2-((2,2′-dichloro-3′-(2-fluoro-2-(5-((3-hydroxy-3-methylpyrrolidin-1-yl)methyl)-4-methoxypyridin-2-yl)vinyl)-[1,1′-biphenyl]-3-yl)carbamoyl)-1-methyl-1,4,6,7-tetrahydro-5H-imidazo[4,5-c]pyiidin-5-yl)ethyl)bicyclo[2.2.1]heptane-1-carboxylic acid]
EC50 [2]: 42.1 nM

COc1cc(/C(F)=C/c2cccc(-c3cccc(NC(=O)c4nc5c(n4C)CCN(CCC46CCC(C(=O)O)(CC4)C6)C5)c3Cl)c2Cl)ncc1CN1CC[C@](C)(O)C1 [Example 72, (S,Z)-4-(2-(2-((2,2′-dichloro-3′-(2-fluoro-2-(5-((3-hydroxy-3-methylyrrolidin-1-yl)methyl)-4-methoxypyridin-2-yl)vinyl)-[1,1′-biphenyl]-3-yl)carbamoyl)-1-methyl-1,4,6,7-tetrahydro-5H-imidazo[4,5-c]pyridin-5-yl)ethyl)bicyclo[2.2.1]heptane-1-carboxylic acid]
EC50 [2]: 116 nM

COc1cc(/C(F)=C/c2cccc(-c3cccc(NC(=O)c4nc5c(n4C)CCN(CCC46CCC(C(=O)O)(CC4)C6)C5)c3Cl)c2Cl)ncc1CN1CC[C@H](C(=O)O)C1 [Example 74, (S,Z)-1-((6-(2-(3′-(5-(2-(4-carboxybicyclo[2.2.1]heptan-1-yl)ethyl)-1-methyl-4,5,6,7-tetrahydro-1H-imidazo[4,5-c]pyridine-2-carboxamido)-2,2′-dichloro-[1,1′-biphenyl]-3-yl)-1-fluorovinyl)-4-methoxypyridin-3-yl)methyl)pyrrolidine-3-carboxylic acid]
EC50 [2]: 136 nM

COc1cc(/C(F)=C/c2cccc(-c3cccc(NC(=O)c4nc5c(n4C)CCN(CCC46CCC(C(=O)O)(CC4)C6)C5)c3Cl)c2Cl)ncc1CN1CC[C@](C)(C(=O)O)C1 [Example 76, (S,Z)-1-((6-(2-(3′-(5-(2-(4-carboxybicyclo[2.2.1]heptan-1-yl)ethyl)-1-methyl-4,5,6,7-tetrahydro-1H-imidazo[4,5-c]pyridine-2-carboxamido)-2,2′-dichloro-[1,1′-biphenyl]-3-yl)-1-fluorovinyl)-4-methoxypyridin-3-yl)methyl)-3-methylpyrrolidine-3-carboxylic acid]
EC50 [2]: 98.1 nM

COc1cc(/C(F)=C/c2cccc(-c3cccc(NC(=O)c4nc5c(n4C)CCN(CCC46CCC(C(=O)O)(CC4)C6)C5)c3Cl)c2Cl)ncc1CN1CC2CCC1C2 (stereo not drawn) [Example 77, (Z)-4-(2-(2-((3′-(2-(5-((2-azabicyclo[2.2.1]heptan-2-yl)methyl)-4-methoxypyridin-2-yl)-2-fluorovinyl)-2,2′-dichloro-[1,1′-biphenyl]-3-yl)carbamoyl)-1-methyl-1,4,6,7-tetrahydro-5H-imidazo[4,5-c]pyridin-5-yl)ethyl)bicyclo[2.2.1]heptane-1-carboxylic acid]
EC50 [2]: 54.4 nM

COc1cc(/C(F)=C/c2cccc(-c3cccc(NC(=O)c4nc5c(n4C)CCN(CCC46CCC(C(=O)O)(CC4)C6)C5)c3Cl)c2Cl)ncc1CN1CC[C@H](C)C1 [Example 78, (S,Z)-4-(2-(2-((2,2′-dichloro-3′-(2-fluoro-2-(4-methoxy-5-((3-methylpyrrolidin-1-yl)methyl)pyridin-2-yl)vinyl)-[1,1′-biphenyl]-3-yl)carbamoyl)-1-methyl-1,4,6,7-tetrahydro-5H-imidazo[4,5-c]pyridin-5-yl)ethyl)bicyclo[2.2.1]heptane-1-carboxylie acid]
EC50 [2]: 56.5 nM
